Where “and” joins values, the source holds several entries; their conditions need not be identical. Equal entries are not always repeated.
Test: xn = mol fraction of the nth substance listed
Conditions: Constant-volume piezometry

CCCCC [pentane] + CCCO
Conditions | mass density
473.15 K, 3570 kPa, Gas, x1 = 0.9 | 221.23 kg/m3
473.15 K, 3581 kPa, Fluid (supercritical or subcritical phases), x1 = 0.9 | 202.87 kg/m3
473.15 K, 3589 kPa, Fluid (supercritical or subcritical phases), x1 = 0.9 | 221.23 kg/m3
473.15 K, 3592 kPa, Gas, x1 = 0.8 | 140.64 kg/m3
473.15 K, 3596 kPa, Fluid (supercritical or subcritical phases), x1 = 0.9 | 233.64 kg/m3 and 237.11 kg/m3
473.15 K, 3598 kPa, Fluid (supercritical or subcritical phases), x1 = 0.9 | 241.52 kg/m3
473.15 K, 3600 kPa, Fluid (supercritical or subcritical phases), x1 = 0.9 | 244.84 kg/m3
473.15 K, 3614 kPa, Fluid (supercritical or subcritical phases), x1 = 0.9 | 282.71 kg/m3
473.15 K, 3634 kPa, Fluid (supercritical or subcritical phases), x1 = 0.9 | 302.44 kg/m3
473.15 K, 3679 kPa, Fluid (supercritical or subcritical phases), x1 = 0.9 | 313.12 kg/m3
473.15 K, 3689 kPa, Fluid (supercritical or subcritical phases), x1 = 0.8 | 316.17 kg/m3
473.15 K, 3767 kPa, Liquid, x1 = 0.8 | 311.76 kg/m3
473.15 K, 3769 kPa, Liquid, x1 = 0.8 | 312.18 kg/m3
473.15 K, 3862 kPa, Liquid, x1 = 0.8 | 334.71 kg/m3
473.15 K, 3867 kPa, Fluid (supercritical or subcritical phases), x1 = 0.9 | 334.89 kg/m3
473.15 K, 4019 kPa, Liquid, x1 = 0.8 | 346.27 kg/m3
473.15 K, 4251 kPa, Fluid (supercritical or subcritical phases), x1 = 0.9 | 355.05 kg/m3
473.15 K, 4349 kPa, Liquid, x1 = 0.5 | 442.18 kg/m3
473.15 K, 4439 kPa, Liquid, x1 = 0.8 | 362.89 kg/m3
473.15 K, 5156 kPa, Liquid, x1 = 0.5 | 452.53 kg/m3
473.15 K, 5785 kPa, Liquid, x1 = 0.5 | 459.62 kg/m3
473.15 K, 6747 kPa, Fluid (supercritical or subcritical phases), x1 = 0.9 | 408.4 kg/m3
473.15 K, 6942 kPa, Liquid, x1 = 0.5 | 469.49 kg/m3
473.15 K, 7120 kPa, Liquid, x1 = 0.8 | 419.36 kg/m3
473.15 K, 7219 kPa, Liquid, x1 = 0.2 | 548.71 kg/m3
473.15 K, 13549 kPa, Liquid, x1 = 0.5 | 508.06 kg/m3
473.15 K, 13806 kPa, Liquid, x1 = 0.8 | 468.05 kg/m3
473.15 K, 16233 kPa, Liquid, x1 = 0.5 | 520.92 kg/m3
473.15 K, 16852 kPa, Liquid, x1 = 0.2 | 583.19 kg/m3
473.15 K, 20923 kPa, Liquid, x1 = 0.8 | 497.59 kg/m3
473.15 K, 22686 kPa, Liquid, x1 = 0.2 | 596.85 kg/m3
473.15 K, 24900 kPa, Liquid, x1 = 0.5 | 549.88 kg/m3
473.15 K, 30448 kPa, Liquid, x1 = 0.8 | 522.21 kg/m3
473.15 K, 32094 kPa, Liquid, x1 = 0.2 | 616.32 kg/m3
473.15 K, 38268 kPa, Liquid, x1 = 0.5 | 576.1 kg/m3
474.15 K, 3452 kPa, Liquid, x1 = 0.5 | 418.33 kg/m3
474.15 K, 3457 kPa, Liquid, x1 = 0.5 | 418.33 kg/m3
474.15 K, 3855 kPa, Liquid, x1 = 0.8 | 311.75 kg/m3
474.15 K, 3858 kPa, Liquid, x1 = 0.8 | 312.16 kg/m3
475.15 K, 3641 kPa, Liquid, x1 = 0.5 | 418.31 kg/m3
475.15 K, 3789 kPa, Fluid (supercritical or subcritical phases), x1 = 0.9 | 302.41 kg/m3
475.15 K, 3944 kPa, Liquid, x1 = 0.8 | 312.15 kg/m3
477.15 K, 3017 kPa, Liquid, x1 = 0.2 | 510.96 kg/m3
478.15 K, 3181 kPa, Gas, x1 = 0.5 | 89.1 kg/m3
478.15 K, 3700 kPa, Liquid, x1 = 0.5 | 399.08 kg/m3
478.15 K, 3850 kPa, Fluid (supercritical or subcritical phases), x1 = 0.8 | 214.32 kg/m3
478.15 K, 3857 kPa, Fluid (supercritical or subcritical phases), x1 = 0.8 | 220.1 kg/m3
478.15 K, 3944 kPa, Fluid (supercritical or subcritical phases), x1 = 0.8 | 273.15 kg/m3
480.15 K, 3218 kPa, Gas, x1 = 0.5 | 89.09 kg/m3
480.15 K, 3965 kPa, Fluid (supercritical or subcritical phases), x1 = 0.8 | 220.08 kg/m3
480.15 K, 4198 kPa, Fluid (supercritical or subcritical phases), x1 = 0.9 | 302.34 kg/m3
482.15 K, 3886 kPa, Liquid, x1 = 0.5 | 384.8 kg/m3
483.15 K, 867 kPa, Gas, x1 = 0.5 | 15.55 kg/m3
483.15 K, 1195 kPa, Gas, x1 = 0.8 | 22.57 kg/m3
483.15 K, 1378 kPa, Gas, x1 = 0.2 | 24.98 kg/m3
483.15 K, 1547 kPa, Gas, x1 = 0.5 | 30.04 kg/m3
483.15 K, 1753 kPa, Gas, x1 = 0.8 | 36.76 kg/m3
483.15 K, 2012 kPa, Gas, x1 = 0.5 | 40.56 kg/m3
483.15 K, 2335 kPa, Gas, x1 = 0.5 | 51.19 kg/m3
483.15 K, 2505 kPa, Gas, x1 = 0.8 | 58.52 kg/m3
483.15 K, 2571 kPa, Gas, x1 = 0.2 | 53.11 kg/m3
483.15 K, 2845 kPa, Gas, x1 = 0.5 | 67.65 kg/m3
483.15 K, 2913 kPa, Gas, x1 = 0.8 | 73.93 kg/m3
483.15 K, 2963 kPa, Gas, x1 = 0.5 | 72.74 kg/m3
483.15 K, 3039 kPa, Gas, x1 = 0.9 | 83.54 kg/m3

Liquid
Conditions | mass density [kg/m3]
473.15 K, x1 = 0.5 | 418.35
474.15 K, x1 = 0.8 | 299.93
475.25 K, x1 = 0.8 | 289.08
475.65 K, x1 = 0.8 | 273.18
475.95 K, x1 = 0.8 | 259.17
476.15 K, x1 = 0.8 | 245.91
476.35 K, x1 = 0.2 | 510.98
476.45 K, x1 = 0.5 | 399.12
482.15 K, x1 = 0.5 | 373.68
